In the experiment the target is T1, Cbl-b (Homo sapiens, UniProt Q13191).
T1 construct: Cbl-b-HiBit KI Jurkat Cells were purchased from Promega; host or cells: Cbl-b-HiBiT knock-in Jurkat cells
The experiment in a line: Cbl-b Degradation Method B (Nano-Glo HiBiT lytic detection). The following applies: Cbl-b-HiBit KI Jurkat Cells, incubated at least 6-24 hours; for DC50: half maximal degradation, read-out: Cbl-b Degredation Method B IC50; for Dmax: maximum degradation observed, read-out: Cbl-b Degredation Method B Dmax (%). The experiment is classed as cell-based. In a few lines: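 Cbl-b-HiBiT knock-in Jurkat cells (20,000/well) were treated after ~24 h plating with an 11-point 1:3 series for 6-24 h at 37° C. Remaining Cbl-b measured by Nano-Glo HiBiT lytic luminescence. DC50 and Dmax expressed as % of control.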

We go through 13 compounds from patent publication US20260184710A1, “CASITAS B-LINEAGE LYMPHOMA PROTOONCOGENE B (CBL-B) DEGRADING COMPOUNDS AND ASSOCIATED METHODS OF USE” (Arvinas Operations, Inc., priority 2022, published 2026).

T1 sequence (Q13191 whole entry): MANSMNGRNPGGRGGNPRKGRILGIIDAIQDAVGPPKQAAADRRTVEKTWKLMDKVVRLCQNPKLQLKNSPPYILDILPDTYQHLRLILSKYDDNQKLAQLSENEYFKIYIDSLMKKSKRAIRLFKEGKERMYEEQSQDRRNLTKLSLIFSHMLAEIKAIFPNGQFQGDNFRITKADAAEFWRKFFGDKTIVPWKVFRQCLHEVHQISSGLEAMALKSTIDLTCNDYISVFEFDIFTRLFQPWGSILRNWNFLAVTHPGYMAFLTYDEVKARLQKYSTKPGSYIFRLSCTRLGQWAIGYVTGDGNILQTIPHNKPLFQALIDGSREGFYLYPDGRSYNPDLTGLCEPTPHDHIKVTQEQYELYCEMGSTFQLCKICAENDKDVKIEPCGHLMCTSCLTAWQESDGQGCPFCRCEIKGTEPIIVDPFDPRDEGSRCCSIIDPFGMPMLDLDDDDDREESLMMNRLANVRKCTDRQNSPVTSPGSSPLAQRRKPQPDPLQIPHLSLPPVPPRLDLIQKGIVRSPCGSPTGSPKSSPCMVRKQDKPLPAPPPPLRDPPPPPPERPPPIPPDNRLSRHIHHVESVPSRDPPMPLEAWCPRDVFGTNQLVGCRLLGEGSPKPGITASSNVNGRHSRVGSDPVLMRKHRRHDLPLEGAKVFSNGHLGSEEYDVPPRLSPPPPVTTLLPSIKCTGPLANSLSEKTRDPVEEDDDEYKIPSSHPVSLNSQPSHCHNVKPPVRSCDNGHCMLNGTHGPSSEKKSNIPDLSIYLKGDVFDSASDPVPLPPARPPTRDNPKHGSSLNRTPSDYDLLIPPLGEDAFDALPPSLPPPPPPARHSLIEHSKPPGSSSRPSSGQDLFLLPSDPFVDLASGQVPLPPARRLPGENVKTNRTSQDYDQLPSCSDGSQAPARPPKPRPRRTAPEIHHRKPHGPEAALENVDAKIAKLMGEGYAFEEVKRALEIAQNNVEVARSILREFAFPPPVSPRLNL

As to `Cc1cc(N2CCC(O[C@H]3CC[C@H](CN4CCN(Cc5cc6c(c(C(F)(F)F)c5)CN(c5cccc(C7(Cc8nncn8C)CC(C#N)C7)c5)C6=O)C(C)(C)C4)CC3)CC2)c(F)c2c1C(=O)N(C1CCC(=O)NC1=O)C2` (some centres unmarked) [Example 251, (1r**,3r**)-3-(3-{6-[(2,2-dimethyl-4-{[(1r*,4r*)-4-({1-[2-(2,6-dioxopiperidin-3-yl)-4-fluoro-7-methyl-1-oxo-2,3-dihydro-1H-isoindol-5-yl]piperidin-4-yl}oxy)cyclohexyl]methyl}piperazin-1-yl)methyl]-1-oxo-4-(trifluoromethyl)-2,3-dihydro-1H-isoindol-2-yl}phenyl)-3-[(4-methyl-4H-1,2,4-triazol-3-yl)methyl]cyclobutane-1-carbonitrile], the DC50 lay in the range of 5 to 50 nM and the Dmax was greater than 70%.

On to `CC1c2nc(N3CCC(O[C@H]4CC[C@H](CN5CCN(Cc6cc(C(F)(F)F)c7cn(-c8cccc(C9(Cc%10nncn%10C)CC(C#N)C9)c8)nc7c6)C(C)(C)C5)CC4)CC3)ccc2C(=O)N1C1CCC(=O)NC1=O` (some centres unmarked) [Example 252, (1r**,3r**)-3-(3-{6-[(2,2-dimethyl-4-{[(1r*,4r*)-4-({1-[6-(2,6-dioxopiperidin-3-yl)-7-methyl-5-oxo-5H,6H,7H-pyrrolo[3,4-b]pyridin-2-yl]piperidin-4-yl}oxy)cyclohexyl]methyl}piperazin-1-yl)methyl]-4-(trifluoromethyl)-2H-indazol-2-yl}phenyl)-3-[(4-methyl-4H-1,2,4-triazol-3-yl)methyl]cyclobutane-1-carbonitrile], for which the DC50 lay within 5 to 50 nM and the Dmax was in the range of 35 to 70%. For the compound `Cn1cnnc1CC1(c2cccc(N3Cc4c(cc(CN5CCN(C[C@H]6CC[C@H](OC7CCN(c8ccc9c(c8F)CN(C8CCC(=O)NC8=O)C9=O)CC7)CC6)CC5(C)C)cc4C(F)(F)F)C3=O)c2)CC(C#N)C1` (some centres unmarked) [Example 254, (1r**,3r**)-3-(3-{6-[(2,2-dimethyl-4-{[(1r*,4r*)-4-({1-[2-(2,6-dioxopiperidin-3-yl)-4-fluoro-1-oxo-2,3-dihydro-1H-isoindol-5-yl]piperidin-4-yl}oxy)cyclohexyl]methyl}piperazin-1-yl)methyl]-1-oxo-4-(trifluoromethyl)-2,3-dihydro-1H-isoindol-2-yl}phenyl)-3-[(4-methyl-4H-1,2,4-triazol-3-yl)methyl]cyclobutane-1-carbonitrile], the DC50 lay within 5 to 50 nM and the Dmax was greater than 70%.

For the compound `Cn1cnnc1CC1(c2cccc(-n3cc4c(C(F)(F)F)cc(CN5CCC[C@H](CN6CCC(CN7CCN(c8ccc9c(c8F)CN(C8CCC(=O)NC8=O)C9=O)CC7)CC6)C5)cc4n3)c2)COC1` (stereo partly drawn) [Example 256, 3-(4-fluoro-5-{4-[(1-{[(3R)-1-{[2-(3-{3-[(4-methyl-4H-1,2,4-triazol-3-yl)methyl]oxetan-3-yl}phenyl)-4-(trifluoromethyl)-2H-indazol-6-yl]methyl}piperidin-3-yl]methyl}piperidin-4-yl)methyl]piperazin-1-yl}-1-oxo-2,3-dihydro-1H-isoindol-2-yl)piperidine-2,6-dione], the DC50 was greater than 500 nM. The same measure, in the same setting: to `Cn1cnnc1CC1(c2cccc(-n3cc4c(C(F)(F)F)cc(CN5CCC[C@H](CN6CCC[C@@H](CN7CCN(c8ccc9c(c8F)CN(C8CCC(=O)NC8=O)C9=O)CC7)C6)C5)cc4n3)c2)COC1` (stereo partly drawn) [Example 257, 3-[4-fluoro-5-(4-{[(3R)-1-{[(3R)-1-{[2-(3-{3-[(4-methyl-4H-1,2,4-triazol-3-yl)methyl]oxetan-3-yl}phenyl)-4-(trifluoromethyl)-2H-indazol-6-yl]methyl}piperidin-3-yl]methyl}piperidin-3-yl]methyl}piperazin-1-yl)-1-oxo-2,3-dihydro-1H-isoindol-2-yl]piperidine-2,6-dione] belongs greater than 500 nM; to `Cn1cnnc1CC1(c2cccc(-n3cc4c(C(F)(F)F)cc(CN5CCC[C@H](CN6CCC[C@H](OC7CCN(c8ccc9c(c8F)CN(C8CCC(=O)NC8=O)C9=O)CC7)C6)C5)cc4n3)c2)COC1` (stereo partly drawn) [Example 258, 3-[4-fluoro-5-(4-{[(3S)-1-{[(3S)-1-{[2-(3-{3-[(4-methyl-4H-1,2,4-triazol-3-yl)methyl]oxetan-3-yl}phenyl)-4-(trifluoromethyl)-2H-indazol-6-yl]methyl}piperidin-3-yl]methyl}piperidin-3-yl]oxy}piperidin-1-yl)-1-oxo-2,3-dihydro-1H-isoindol-2-yl]piperidine-2,6-dione], greater than 500 nM; to `Cn1cnnc1CC1(c2cccc(-n3cc4c(C(F)(F)F)cc(CN5CCC[C@H](CN6CCC(OC7CCN(c8ccc9c(c8F)CN(C8CCC(=O)NC8=O)C9=O)CC7)CC6)C5)cc4n3)c2)COC1` (stereo partly drawn) [Example 259, 3-(4-fluoro-5-{4-[(1-{[(3R)-1-{[2-(3-{3-[(4-methyl-4H-1,2,4-triazol-3-yl)methyl]oxetan-3-yl}phenyl)-4-(trifluoromethyl)-2H-indazol-6-yl]methyl}piperidin-3-yl]methyl}piperidin-4-yl)oxy]piperidin-1-yl}-1-oxo-2,3-dihydro-1H-isoindol-2-yl)piperidine-2,6-dione], greater than 500 nM. On the same count and under the same terms, to `Cn1cnnc1CC1(c2cccc(-n3cc4ccc(N5CC6(CCN(CC7CCN(c8ccc9c(c8Cl)CN(C8CCC(=O)NC8=O)C9=O)CC7)CC6)C5)cc4n3)c2)COC1` (centres unmarked) [Example 260, 3-{4-chloro-5-[4-({2-[2-(3-{3-[(4-methyl-4H-1,2,4-triazol-3-yl)methyl]oxetan-3-yl}phenyl)-2H-indazol-6-yl]-2,7-diazaspiro[3.5]nonan-7-yl}methyl)piperidin-1-yl]-1-oxo-2,3-dihydro-1H-isoindol-2-yl}piperidine-2,6-dione] belongs greater than 500 nM; to `Cc1cc(N2CCC(CN3CCC4(CC3)CN(c3ccc5cn(-c6cccc(C7(Cc8nncn8C)COC7)c6)nc5c3)C4)CC2)c(F)c2c1C(=O)N(C1CCC(=O)NC1=O)C2` (centres unmarked) [Example 261, 3-{4-fluoro-7-methyl-5-[4-({2-[2-(3-{3-[(4-methyl-4H-1,2,4-triazol-3-yl)methyl]oxetan-3-yl}phenyl)-2H-indazol-6-yl]-2,7-diazaspiro[3.5]nonan-7-yl}methyl)piperidin-1-yl]-1-oxo-2,3-dihydro-1H-isoindol-2-yl}piperidine-2,6-dione], greater than 500 nM. As for `Cn1cnnc1C[C@]1(c2cccc(-n3cc4c(C(F)(F)F)cc(N5CC6(CCN(CC7CCN(c8ccc9c(c8Cl)CN(C8CCC(=O)NC8=O)C9=O)CC7)CC6)C5)cc4n3)c2)C[C@H](C#N)C1` (some centres unmarked) [Example 262, (1r,3r)-3-(3-{6-[7-({1-[4-chloro-2-(2,6-dioxopiperidin-3-yl)-1-oxo-2,3-dihydro-1H-isoindol-5-yl]piperidin-4-yl}methyl)-2,7-diazaspiro[3.5]nonan-2-yl]-4-(trifluoromethyl)-2H-indazol-2-yl}phenyl)-3-[(4-methyl-4H-1,2,4-triazol-3-yl)methyl]cyclobutane-1-carbonitrile], the DC50 fell in the range of 5 to 50 nM and the Dmax was less than 35%. The like results for `CC(C)n1c(=O)n(C2CCC(=O)NC2=O)c2ccc(N3CCC(O[C@H]4CC[C@@H](CN5CCN(C[C@H]6CCCN(Cc7cc8c(c(C(F)(F)F)c7)CN(c7cccc(C9(Cc%10nncn%10C)COC9)c7)C8=O)C6)C(C)(C)C5)CC4)CC3)cc21` (stereo partly drawn) [Example 263, 3-[2-oxo-3-(propan-2-yl)-5-(4-{[(1r,4r)-4-[(3,3-dimethyl-4-{[(3S)-1-{[2-(3-{3-[(4-methyl-4H-1,2,4-triazol-3-yl)methyl]oxetan-3-yl}phenyl)-3-oxo-7-(trifluoromethyl)-2,3-dihydro-1H-isoindol-5-yl]methyl}piperidin-3-yl]methyl}piperazin-1-yl)methyl]cyclohexyl]oxy}piperidin-1-yl)-2,3-dihydro-1H-1,3-benzodiazol-1-yl]piperidine-2,6-dione] were, in that order, less than 5 nM and greater than 70%. For `Cn1cnnc1CC1(c2cccc(N3Cc4c(cc(CN5CCC[C@H](CN6CCN(C[C@H]7CC[C@@H](OC8CCN(c9ccc%10c(c9F)CN(C9CCC(=O)NC9=O)C%10=O)CC8)CC7)CC6(C)C)C5)cc4C(F)(F)F)C3=O)c2)CC1` (stereo partly drawn) [Example 264, 3-[4-fluoro-1-oxo-5-(4-{[(1r,4r)-4-[(3,3-dimethyl-4-{[(3S)-1-{[2-(3-{1-[(4-methyl-4H-1,2,4-triazol-3-yl)methyl]cyclopropyl}phenyl)-3-oxo-7-(trifluoromethyl)-2,3-dihydro-1H-isoindol-5-yl]methyl}piperidin-3-yl]methyl}piperazin-1-yl)methyl]cyclohexyl]oxy}piperidin-1-yl)-2,3-dihydro-1H-isoindol-2-yl]piperidine-2,6-dione] the same measures were less than 5 nM and greater than 70%. As to `COc1c(N2CCC(C(=O)N3CCC4(CC3)CN(c3cc5c(c(C(F)(F)F)c3)CN(c3cccc(C6(Cc7nncn7C)COC6)c3)C5=O)C4)CC2)ccc2c1CN(C1CCC(=O)NC1=O)C2=O` (centres unmarked) [Example 265, 3-[4-methoxy-5-(4-{2-[2-(3-{3-[(4-methyl-4H-1,2,4-triazol-3-yl)methyl]oxetan-3-yl}phenyl)-3-oxo-7-(trifluoromethyl)-2,3-dihydro-1H-isoindol-5-yl]-2,7-diazaspiro[3.5]nonane-7-carbonyl}piperidin-1-yl)-1-oxo-2,3-dihydro-1H-isoindol-2-yl]piperidine-2,6-dione], the DC50 lay in the range of 5 to 50 nM and the Dmax was less than 35%.

One may read the Dmax as the greatest extent of degradation seen.
